Active and inactive are the calls of the source. The rule behind the calls is not given here.
Species: Rattus norvegicus
Experiment: The compound was tested for maximum stimulation of PI (phosphatidyl inositol) in rat hippocampal tissue, activity is expressed as percent of carbachol response; Inactive
Assay type: functional
Conditions: Hippocampus

SMILES	Max stimulation
CC1OC2(CCN(C)CC2)C2OCCOC12 (stereo unspecified)	inactive
CC1OC2(CCN(C)CC2)C2SCCSC12 (stereo unspecified)	inactive

Target: Muscarinic acetylcholine receptor
Conditions: not given

SMILES	Ki [µM]
CCC(=O)O/N=C1\COC2(CCN(C)CC2)C1.O=C(O)/C=C\C(=O)O.O=C(O)C(=O)O	38.1
CC1OC2(CCN(C)CC2)CC1O (stereo unspecified)	141
CC1CC(O)C2(CCN(C)CC2)O1 (stereo unspecified)	30
CC1OC2(CCN(C)CC2)C/C1=N\O (stereo unspecified)	1.63
CC1OC2(CCN(C)CC2)CC1O.Cl (stereo unspecified)	430
CC1OC2(CCN(C)CC2)CC1=O (stereo unspecified)	2.68
CC(=O)OC1COC2(CCN(C)CC2)C1 (stereo unspecified)	98.7
CC(=O)O/N=C1\COC2(CCN(C)CC2)C1.O=C(O)/C=C\C(=O)O.O=C(O)C(=O)O	44.8
CC1CC(=O)C2(CCN(C)CC2)O1 (stereo unspecified)	33
